# Assay results from ChEMBL document CHEMBL3045984, “Resistance to HPPD-inhibiting herbicides in a population of waterhemp (Amaranthus tuberculatus) from Illinois, United States” (2011).
# Key:
# [1] = test system: Amaranthus tuberculatus; assay: Resistance ratio of GR50 for Amaranthus tuberculatus biotype MCR to GR50 for Amaranthus tuberculatus biotype WCS; assay type: functional
# [2] = test system: Amaranthus tuberculatus; assay: Resistance ratio of GR50 for Amaranthus tuberculatus biotype MCR to GR50 for Amaranthus tuberculatus biotype ACR; assay type: functional
smiles,measurement,setting,value
CS(=O)(=O)c1ccc(C(=O)C2C(=O)CCCC2=O)c([N+](=O)[O-])c1 [MESOTRIONE],Ratio,[1],35
same,Ratio,[2],10
